From PubChem BioAssay AID248 (DTP/NCI, 2004)
Values joined by “and” are separate entries in the source; they are usually repeats but may differ in a detail not shown here. Equal entries are not always repeated. Inconclusive results and toxic doses are left out. Cut-off read from the data, not from the text of the source: active = T/C of 150% or more; inactive = T/C below 125%.

Test system: L1210 leukemia ip in BDF1 mice, survival T/C
Test: NCI In Vivo Anticancer Drug Screen. Data for tumor model L1210 Leukemia (intraperitoneal) in B6D2F1 (BDF1) mice
Details: endpoint: mean survival time, higher = longer survival
Method in brief: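 Value reflects the ratio of survival in compound-treated mice to survival in vehicle-treated controls, with both groups carrying the same transplanted tumor.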

[1] = dose: 100.0 mg/kg/injection, schedule: Q01DX001 (ip), vehicle: carboxymethylcellulose (CMC)
[2] = dose: 100.0 mg/kg/injection, schedule: Q01DX009 (ip), vehicle: carboxymethylcellulose (CMC)
[3] = dose: 100.0 mg/kg/injection, schedule: Q04DX003 (ip), vehicle: carboxymethylcellulose (CMC)
[4] = dose: 200.0 mg/kg/injection, schedule: Q01DX001 (ip), vehicle: carboxymethylcellulose (CMC)
[5] = dose: 200.0 mg/kg/injection, schedule: Q01DX009 (ip), vehicle: carboxymethylcellulose (CMC)
[6] = dose: 200.0 mg/kg/injection, schedule: Q04DX003 (ip), vehicle: carboxymethylcellulose (CMC)
[7] = dose: 400.0 mg/kg/injection, schedule: Q01DX001 (ip), vehicle: carboxymethylcellulose (CMC)
[8] = dose: 400.0 mg/kg/injection, schedule: Q01DX009 (ip), vehicle: carboxymethylcellulose (CMC)
[9] = dose: 400.0 mg/kg/injection, schedule: Q04DX003 (ip), vehicle: carboxymethylcellulose (CMC)
[10] = dose: 100.0 mg/kg/injection, schedule: Q01DX009 (ip), vehicle: Klucel (hydroxypropylcellulose) (HPC)
[11] = dose: 100.0 mg/kg/injection, schedule: Q04DX003 (ip), vehicle: Klucel (hydroxypropylcellulose) (HPC)
[12] = dose: 200.0 mg/kg/injection, schedule: Q01DX009 (ip), vehicle: Klucel (hydroxypropylcellulose) (HPC)
[13] = dose: 200.0 mg/kg/injection, schedule: Q04DX003 (ip), vehicle: Klucel (hydroxypropylcellulose) (HPC)
[14] = dose: 400.0 mg/kg/injection, schedule: Q01DX009 (ip), vehicle: Klucel (hydroxypropylcellulose) (HPC)
[15] = dose: 400.0 mg/kg/injection, schedule: Q04DX003 (ip), vehicle: Klucel (hydroxypropylcellulose) (HPC)
[16] = dose: 50.0 mg/kg/injection, schedule: Q01DX009 (ip), vehicle: saline with Tween-80
[17] = dose: 100.0 mg/kg/injection, schedule: Q01DX009 (ip), vehicle: saline with Tween-80
[18] = dose: 100.0 mg/kg/injection, schedule: Q04DX003 (ip), vehicle: saline with Tween-80
[19] = dose: 75.0 mg/kg/injection, schedule: Q01DX001 (ip), vehicle: other
[20] = dose: 100.0 mg/kg/injection, schedule: Q04DX002 (ip), vehicle: saline with Tween-80
[21] = dose: 200.0 mg/kg/injection, schedule: Q04DX002 (ip), vehicle: saline with Tween-80
[22] = dose: 400.0 mg/kg/injection, schedule: Q04DX002 (ip), vehicle: saline with Tween-80
[23] = dose: 200.0 mg/kg/injection, schedule: Q04DX003 (ip), vehicle: saline with Tween-80
[24] = dose: 400.0 mg/kg/injection, schedule: Q04DX003 (ip), vehicle: saline with Tween-80
[25] = dose: 100.0 mg/kg/injection, schedule: Q01DX001 (ip), vehicle: saline
[26] = dose: 200.0 mg/kg/injection, schedule: Q01DX001 (ip), vehicle: saline
[27] = dose: 400.0 mg/kg/injection, schedule: Q01DX001 (ip), vehicle: saline
[28] = dose: 50.0 mg/kg/injection, schedule: Q01DX009 (ip), vehicle: saline
[29] = dose: 100.0 mg/kg/injection, schedule: Q04DX002 (ip), vehicle: Klucel (hydroxypropylcellulose) (HPC)
[30] = dose: 200.0 mg/kg/injection, schedule: Q04DX002 (ip), vehicle: Klucel (hydroxypropylcellulose) (HPC)
[31] = dose: 400.0 mg/kg/injection, schedule: Q04DX002 (ip), vehicle: Klucel (hydroxypropylcellulose) (HPC)

Measured: T/C

NC(=O)c1ccccc1NC(=O)Nc1ccc(F)cc1
inactive: [1] 104 % of control | [2] 102 % of control and 105 % of control | dose: 100.0 mg/kg/injection, schedule: Q04DX002 (ip), vehicle: carboxymethylcellulose (CMC) 100 % of control and 101 % of control | [3] 95 % of control | [4] 101 % of control | [5] 98 % of control and 105 % of control | dose: 200.0 mg/kg/injection, schedule: Q04DX002 (ip), vehicle: carboxymethylcellulose (CMC) 101 % of control and 107 % of control | [6] 102 % of control | [7] 93 % of control | [8] 94 % of control and 102 % of control | dose: 400.0 mg/kg/injection, schedule: Q04DX002 (ip), vehicle: carboxymethylcellulose (CMC) 93 % of control and 96 % of control | [9] 91 % of control

COc1ccc(/C=N/N2CCN(/N=C/c3ccc(OC)cc3)CC2)cc1
inactive: [1] 88 % of control | [4] 88 % of control | [7] 93 % of control

CC(=O)CC(=O)Nc1cc(C)c(NC(=O)CC(C)=O)cc1C
inactive: [10] 95 % of control | [11] 98 % of control | [12] 93 % of control | [13] 96 % of control | [14] 103 % of control | [15] 98 % of control

Oc1ccc(Cl)cc1C1N(Cc2ccc(N(CCCl)CCCl)cc2Cl)CCCN1Cc1ccc(N(CCCl)CCCl)cc1Cl
inactive: dose: 50.0 mg/kg/injection, schedule: Q01DX001 (ip), vehicle: carboxymethylcellulose (CMC) 113 % of control | [1] 96 % of control | [4] 105 % of control | [7] 96 % of control

N#Cc1oc2ccccc2c1O
inactive: dose: 25.0 mg/kg/injection, schedule: Q01DX009 (ip), vehicle: saline with Tween-80 92 % of control | [16] 96 % of control | [17] 92 % of control | [18] 103 % of control

O=Cc1ccc([N+](=O)[O-])cc1Cl
inactive: [19] 111 % of control | dose: 150.0 mg/kg/injection, schedule: Q01DX001 (ip), vehicle: other 94 % of control | dose: 300.0 mg/kg/injection, schedule: Q01DX001 (ip), vehicle: other 97 % of control

Nn1c(Cc2ccccc2)nnc1Cc1ccccc1
inactive: [20] 104 % of control | [21] 87 % of control | [22] 108 % of control

COP(=O)(OC)C(OC(=O)C(C)C)=C(C)C
inactive: [18] 112 % of control | [23] 110 % of control | [24] 102 % of control

ClCCN(CCCl)c1ccc(C=Nc2ccc(-c3csc(-c4ccccc4)n3)c(Cl)c2)cc1
inactive: dose: 100.0 mg/kg/injection, schedule: Q01DX001 (sc), vehicle: carboxymethylcellulose (CMC) 94 % of control | dose: 200.0 mg/kg/injection, schedule: Q01DX001 (sc), vehicle: carboxymethylcellulose (CMC) 97 % of control | dose: 400.0 mg/kg/injection, schedule: Q01DX001 (sc), vehicle: carboxymethylcellulose (CMC) 103 % of control

COc1ccc2c(c1OC)C1(CCN(C)C)CC(=O)CCC1C=C2 (stereo not given)
inactive: dose: 3.12 mg/kg/injection, schedule: Q01DX009 (ip), vehicle: Klucel (hydroxypropylcellulose) (HPC) 103 % of control | dose: 6.25 mg/kg/injection, schedule: Q01DX009 (ip), vehicle: Klucel (hydroxypropylcellulose) (HPC) 95 % of control | dose: 12.5 mg/kg/injection, schedule: Q01DX009 (ip), vehicle: Klucel (hydroxypropylcellulose) (HPC) 98 % of control | dose: 25.0 mg/kg/injection, schedule: Q01DX009 (ip), vehicle: Klucel (hydroxypropylcellulose) (HPC) 86 % of control | [11] 98 % of control

Nc1c(Br)cccc1C(=O)O
inactive: [25] 104 % of control | [26] 102 % of control | [27] 101 % of control

CCC(C)C(CN)(CCCN1CCOCC1)c1cccc2ccccc12 (stereo not given)
inactive: [18] 93 % of control | [23] 95 % of control | [24] 95 % of control

CSc1cc(N)nc2n[nH]nc12
inactive: dose: 100.0 mg/kg/injection, schedule: Q01DX001 (ip), vehicle: Klucel (hydroxypropylcellulose) (HPC) 97 % of control | dose: 200.0 mg/kg/injection, schedule: Q01DX001 (ip), vehicle: Klucel (hydroxypropylcellulose) (HPC) 110 % of control

CNc1ccc(C(=O)O)cc1
inactive: [28] 102 % of control | dose: 100.0 mg/kg/injection, schedule: Q01DX009 (ip), vehicle: saline 109 % of control | dose: 200.0 mg/kg/injection, schedule: Q01DX009 (ip), vehicle: saline 106 % of control

O=C(N/N=C/c1ccccn1)c1ccc(Cl)cc1
inactive: [16] 104 % of control | [17] 86 % of control | dose: 200.0 mg/kg/injection, schedule: Q01DX009 (ip), vehicle: saline with Tween-80 107 % of control

CCn1cc([N+](=O)[O-])ccc1=O
inactive: [10] 104 % of control | [11] 98 % of control | [12] 101 % of control | [13] 96 % of control | [14] 98 % of control | [15] 107 % of control

CCCCNC(=O)c1ccc(C(=O)c2ccc(C(=O)NCCCC)c(C(=O)O)c2)cc1C(=O)O
inactive: [29] 90 % of control | [30] 87 % of control | [31] 87 % of control

Cc1cc(Br)c(C)cc1Br
inactive: dose: 50.0 mg/kg/injection, schedule: Q01DX001 (ip), vehicle: saline 100 % of control | [25] 100 % of control | [10] 98 % of control | [11] 100 % of control | [26] 103 % of control | [12] 93 % of control | [13] 98 % of control | [27] 103 % of control | [14] 90 % of control | [15] 100 % of control

CC#CCCC(=O)OCCCC
inactive: [20] 101 % of control | [21] 93 % of control | [22] 97 % of control

C1CC2OC2CCC2OC12 (stereo not given)
inactive: dose: 100.0 mg/kg/injection, schedule: Q01DX001 (ip), vehicle: other 95 % of control | dose: 200.0 mg/kg/injection, schedule: Q01DX001 (ip), vehicle: other 106 % of control | dose: 400.0 mg/kg/injection, schedule: Q01DX001 (ip), vehicle: other 101 % of control

CCN(CC)C(C)COC(=O)c1ccc(N)cc1 (stereo not given)
inactive: dose: 12.5 mg/kg/injection, schedule: Q01DX009 (ip), vehicle: saline 101 % of control | dose: 25.0 mg/kg/injection, schedule: Q01DX009 (ip), vehicle: saline 101 % of control | [28] 95 % of control

O=C1C2C3CCC(O3)C2C(=O)N1N1C(=O)C2C3CCC(O3)C2C1=O (stereo not given)
inactive: [2] 102 % of control | [3] 110 % of control | [5] 97 % of control | [6] 111 % of control | [8] 87 % of control | [9] 101 % of control

CCC(C)C(CN)(CCN(C)C)Cc1cccc2ccccc12 (stereo not given)
inactive: dose: 12.5 mg/kg/injection, schedule: Q04DX003 (ip), vehicle: saline 93 % of control | dose: 25.0 mg/kg/injection, schedule: Q04DX003 (ip), vehicle: saline 96 % of control | dose: 50.0 mg/kg/injection, schedule: Q04DX003 (ip), vehicle: saline 101 % of control

CN(C)c1ccc(/C=C/c2nc3ccccc3o2)cc1
inactive: [10] 95 % of control | [12] 95 % of control | [14] 94 % of control

O=C(COc1ccc(Cl)c(Cl)c1)NCc1ccc([N+](=O)[O-])cc1
inactive: [11] 90 % of control | [13] 92 % of control | [15] 88 % of control

O=C(Nc1cc2c3ccccc3ccc2c2ccccc12)C(F)(F)F
inactive: [1] 91 % of control | [4] 92 % of control | [7] 97 % of control

Cc1c(O)cc2c(c1O)C(=O)CC(c1ccc(O)cc1)O2 (stereo not given)
inactive: [29] 91 % of control | [30] 87 % of control | [31] 108 % of control

Cc1ccc(N=C=S)cc1F
inactive: [19] 95 % of control
